Measured values reported in US6677377B2, “Structure based discovery of inhibitors of matriptase for the treatment of cancer and other conditions” (Georgetown University School of Medicine, priority 2000, dated 2004).
Entries after “also recorded” stand apart in the source; their conditions may differ. Read-outs that look alike come from different tables or passages of the source.

Experiments:
[1] = molecular target: T1, urokinase-type plasminogen activator (uPA) (Homo sapiens, UniProt P00749); assay: Determination of inhibitory activity, Ki by Dixon plotting, uPA; assay type: biochemical; conditions: for selectivity between matriptase and uPA (less potent for uPA than for matriptase): ratio of Ki values; for Ki: substrate N-t-Boc-Leu-Gly-Arg-AMC, pH 8.5, room temperature
T1 construct: from tissue; host or cells: human urine
From the text: (§1) Materials. Active matriptase was purified from human milk as will be described later. Active urokinase-type plasminogen activator (uPA) was purified by aminobenzamidine-Sepharose 6B (Amersham Pharmacia, Piscataway, N.J.) from a partially purified uPA from human urine. Bovin β-trypsin, bovine thrombin, and fluorescent peptide substrates N-tert-Butoxy-Carbonyl (N-t-Boc)-Gln-Ala-Arg-7-Amido-4-Methylcoumarin (AMC), N-t-Boc-Leu-Gly-Arg-AMC, and N-t-Boc-Leu-Arg-Arg-AMC were purchased from Sigma (Sigma Chemical Company, St. Louis). Small molecule inhibitors were obtained from the Drug Synthesis & Chemistry Branch, Developmental Therapeutics Program, Division of Cancer Treatment and Diagnosis, National Cancer Institute. Other chemicals are all reagent grade.
(§2) Determination of Inhibitory Activity. Inhibitory activity of compounds against each protease was measured at room temperature using fluorescent substrate peptides in 100 mM Tris-HCl (pH 8.5), containing 100 μg/ml of bovine serum albumin. To a cuvette containing 170 μl buffer was added 10 μl of enzyme solution and 10 μl of inhibitors. After pre-incubation, 10 μl of substrate was added, and the solution was mixed well by shaking the cuvette. The residual enzyme activity was then determined by following the change of fluorescence released by hydrolysis of the fluorescent substrates in a fluorescent spectrophotometer (HITACHI F4500), with excitation at 360 nm and emission at 480 nm. Peptide N-t-Boc-Gln-Ala-Arg-AMC was used as a substrate for matriptase and trypsin, peptide N-t-Boc-Leu-Gly-Arg-AMC was used as a substrate for uPA, and peptide N-t-Boc-Leu-Arg-Arg-AMC was used as a substrate for thrombin.
(§3) Kinetic Screening of Compound Inhibitors. The inhibitory activity of each compound was first investigated by using a fixed (75 μM) concentration both of inhibitor and matriptase. […] We recorded the rate of hydrolysis in duplicate in the presence of 6-7 different concentrations of each inhibitor. A straight line of the concentration of inhibitor versus the reciprocal values of the rate of hydrolysis was plotted with SigmaPlot software. Two lines were obtained from two unsaturated substrate concentrations; the X value of the intersection of these lines gives the value of −Ki.

bovine thrombin = molecular target: T2, bovine thrombin (Bos taurus, UniProt P00735); assay: Determination of inhibitory activity, Ki by Dixon plotting, thrombin; assay type: biochemical; conditions: for Ki: substrate N-t-Boc-Leu-Arg-Arg-AMC, pH 8.5, room temperature
T2 construct: bovine thrombin; purchased Sigma (Sigma Chemical Company, St. Louis)
From the text: as §1, §2, §3

matriptase [2] = molecular target: T3, matriptase (Homo sapiens, UniProt Q9Y5Y6); assay: Determination of inhibitory activity, Ki by Dixon plotting, matriptase; assay type: biochemical
T3 construct: Gels containing the 70-kDa active matriptase was sliced out, and eluted from gel; from tissue; host or cells: human milk
T3 sequence (Q9Y5Y6 615-855 limits assumed): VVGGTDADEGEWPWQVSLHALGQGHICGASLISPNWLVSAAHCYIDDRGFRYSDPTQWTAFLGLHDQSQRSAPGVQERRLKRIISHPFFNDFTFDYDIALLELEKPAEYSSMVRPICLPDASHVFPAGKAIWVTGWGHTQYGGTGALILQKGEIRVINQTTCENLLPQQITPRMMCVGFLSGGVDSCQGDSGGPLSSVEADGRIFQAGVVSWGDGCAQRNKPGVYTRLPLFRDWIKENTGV
T3 sequence (Q9Y5Y6 190-614 partner limits assumed): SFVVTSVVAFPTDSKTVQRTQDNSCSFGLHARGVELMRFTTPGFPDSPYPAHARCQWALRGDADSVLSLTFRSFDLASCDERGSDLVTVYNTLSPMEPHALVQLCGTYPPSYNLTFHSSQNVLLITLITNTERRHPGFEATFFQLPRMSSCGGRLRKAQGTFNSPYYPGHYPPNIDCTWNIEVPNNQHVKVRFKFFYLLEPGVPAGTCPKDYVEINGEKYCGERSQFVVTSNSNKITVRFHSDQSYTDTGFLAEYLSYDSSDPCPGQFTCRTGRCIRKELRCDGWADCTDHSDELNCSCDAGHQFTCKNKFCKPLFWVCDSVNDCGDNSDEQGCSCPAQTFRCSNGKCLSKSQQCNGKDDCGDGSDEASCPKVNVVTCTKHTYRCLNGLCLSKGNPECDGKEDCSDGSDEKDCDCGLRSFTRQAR
From the text: Purification of Active Form Matriptase. Activated matriptase, in a complex with its endogenous inhibitor HAI-1, was purified from human milk by immunoaffinity chromatography, and maintained in its uncomplexed status in glycine buffer pH 2.4, as described previously^11. Matritpase and HAI-1 were further separated by 10% SDS polyacryamide gel electrophoresis. The proteins were stained by Zinc stain Kit (Bio-Rad, Hercules, Calif.). Gels containing the 70-kDa active matriptase was sliced out, and eluted from gel using Electro-Eluter (Bio-Rad, Hercules, Calif.) under non-denatured conditions (Tris-Glysine buffer pH 8.3). Purified, active matriptase was then stored at −80° C. in acid solution.
as §2, §3

matriptase [3] = molecular target: T3, matriptase; assay: Matriptase enzyme activity and kinetic parameters with fluorescent peptide substrates; assay type: biochemical
From the text: Purification of active Matriptase_Active matriptase, in the complex form with its endogenous inhibitor HAI-1, was purified from human milk. To separate matriptase from the bound HAI-1, the complex was dissociated by acid and resolved in 10% SDS polyacryamide gel electrophoresis. The proteins were stained by Zinc stain Kit (Bio-Rad, Hercules, Calif.), the 70-kDa active matriptase was sliced out, and eluted from gel using Electro-Eluter (Bio-Rad, Hercules, Calif.) under non-denatured condition (Tris-Glysine buffer pH 8.3).
Determination of matriptase activity_The enzyme activity of matriptase was measured at room temperature in a reaction buffer containing 100 mM Tris-HCl (pH 8.5) and 100_g/ml of BSA using fluorescent peptide as substrate. In brief, 10_l of enzyme solution and 10_l of peptide substrate were added to a cuvette containing 180_l of the reaction buffer. The mixture was mixed well, placed back to a fluorescent spectrophotometer (HITACH F4500), and the release of fluorescence resulting from hydrolysis of the peptide substrate was recorded with excitation at 360 nm and emission at 480 nm.
Determination of kinetic parameter_Substrate concentration versus initial reaction velocity were analyzed by the Michaelis-Menten equation and plotted using SigmaPlot software. Double reciprocal (Lineweaver-Burk) plots thus derived were used to determine Vmax and Km values.
Table 1. Kinetic Parameters of Matriptase for Various Peptide Substrates. […], the release of fluorescence resulting from hydrolysis of the peptide was recorded in a fluorescent spectrophotometer at room temperature with excitation at 360 nm and emission at 480 nm. Km and Vmax were determined by double reciprocal plot derived from Michaelis-Menten equation: […]

[4] = test system: PC-3 prostate cancer tumors; conditions: nude mice; cited from earlier work
[5] = read-out: Ki value against matriptase (bound stated in text)
[6] = substrate N-t-Boc-Gln-Ala-Arg-AMC, pH 8.5, room temperature, read-out: Ki Matriptase
[7] = peptide-AMC substrate hydrolysis by matriptase, room temperature

Which “selectivity between matriptase and uPA (less potent for uPA than for matriptase)” value [1] does the source give for N=C(N)c1ccc(Oc2ccc(Oc3ccc(C(=N)N)cc3)cc2)cc1 [Compound 7] here?
Its value is 9 fold.

And the Ki [1]?
The Ki was 1950 nM.

What about the “selectivity between matriptase and thrombin” value (bovine thrombin; ratio of Ki values) of the same compound?
Its value is 13 fold.

And the Ki (bovine thrombin)?
Its Ki is 2670 nM.

What about the “selectivity matriptase versus thrombin/uPA” value (matriptase [2]) of the same compound?
Its value is “most selective inhibitor for matriptase; also recorded: matriptase selective; also recorded: most selective compound”.

And the Ki (matriptase [2]; [5])?
Its Ki is less than 1000 nM.

And the Ki (matriptase [2]; [6])?
Its Ki is 208 nM.

Which “inhibition of matriptase enzyme activity” value (matriptase [3]) does the source give for CC(=O)N[C@@H](CC(C)C)C(=O)N[C@@H](CC(C)C)C(=O)N[C@H](C=O)CCCNC(=N)N [leupeptin] here?
Its value is “can also inhibit matriptase enzyme activity”.

Which results are given for N=C(N)c1ccc(OCCCCCCOc2ccc(C(=N)N)cc2)cc1 [Compound 1, hexamidine, reference compound]?
selectivity between matriptase and uPA (less potent for uPA than for matriptase) [1]: 16 fold; Ki [1]: 14400 nM; Ki (bovine thrombin): 224 nM; selectivity matriptase versus thrombin/uPA (matriptase [2]): thrombin selective; Ki (matriptase [2]; [5]): < 1000 nM; Ki (matriptase [2]; [6]): 924 nM

Which Ki (bovine thrombin) does the source give for N=C(N)c1ccc(/N=N/c2c(O)ccc3cc4c(/N=N/c5ccc(C(=N)N)cc5)c(O)ccc4cc23)cc1 [Compound 4] here?
The Ki was 28400 nM.

And the Ki (matriptase [2]; [6])?
Its Ki is 4500 nM.

What does the source list for N=C(N)c1ccc(OCCCCCCOc2ccc(C(=N)N)cc2I)cc1 [Compound 2]?
Ki [1]: 1980 nM; decreased potency for thrombin (bovine thrombin; compared with compound 1): approximately 4 fold; Ki (bovine thrombin): 796 nM; selectivity matriptase versus thrombin/uPA (matriptase [2]): more selective for matriptase versus thrombin; improved potency for matriptase (matriptase [2]; compared with compound 1): approximately 5 fold; Ki (matriptase [2]; [5]): < 1000 nM; Ki (matriptase [2]; [6]): 191 nM

Which “growth of PC-3 prostate cancer tumors” value [4] does the source give for ecotin here?
The value was “retards the growth”.

Which Ki (matriptase [2]; [6]) does the source give for N=C(N)c1ccc(OCCCCCOc2ccc(C(=N)N)cc2)cc1 [Compound 3] here?
Its Ki is 1160 nM.

Which Km (matriptase [3]; [7]) does the source give for hexamidine [Compound 1] here?
The Km was 4.89 µM.

What about the Vmax (matriptase [3]; [7]) of the same compound?
Its Vmax is 654 nM Amc/min.

For N=C(N)c1ccc(OCCCOc2ccc(C(=N)N)cc2Br)c(Br)c1 [Compound 5], which Ki [1] is on record?
The Ki was 1570 nM.

What about the Ki (bovine thrombin) of the same compound?
Its Ki is 946 nM.

And the “more potent against matriptase” value (matriptase [2]; compared with 1 and 3)?
The value was “approximately 2 fold”.

What about the Ki (matriptase [2]; [5]) of the same compound?
The Ki was less than 1000 nM.

And the Ki (matriptase [2]; [6])?
The Ki was 535 nM.
